Common to all, as to format: biochemical
Experiment [1] relates to Aspergillus sojae SOX. Nature of the experiment: Substrate specificity of SOX toward low MW thiol compounds, polarographic (oxygen consumption). The conditions noted are these: 1 mM test compound, 227 μM oxygen, 50 mM potassium phosphate pH 6.7, 30° C., corrected for auto-oxidation. How it is done: SOX activity may be ascertained by two methods. The activity may be determined by measuring the oxygen consumed when a suitable substrate, e.g., reduced glutathione, is oxidized enzymatically to the corresponding disulfide. The stoichiometry involved is according to the equations 1 and 2 below, namely, 1/2 oxygen consumed per disulfide formed, when the reaction is carried out in the presence of catalase activity.
The assay employs oxygen electrode techniques and is used with low MW compounds as substrates.
The ability of low MW thiol-containing compounds to serve as substrates for SOX was determined polarographically at 30° C., pH 6.7. […] Protein specificity was determined with proteins in their reductively denatured state. Reductive denaturation is accomplished by submitting the protein to a denaturant e.g., urea and a mercaptan such as beta-mercaptoethanol at pH 8.5. Renaturation is then achieved by incubating the reduced protein with the SOX for a period of time at pH 7.0. The progress of the renaturation can easily be assessed by reaction of the protein with DTNB.
The activity of the SOX preparation may be determined polarographically by measuring the oxygen consumed when a substrate e.g., reduced glutathione (GSH) is oxidized to the corresponding disulfide. The activity may also be determined spectrophotometrically using dithiobisnitrobenzoic acid (DTNB) which specifically reacts with a free sulfhydryl by measuring the absorption at 412 nm (ε=13.6×10^3 M^-1 cm^-1). Therefore, one unit of activity is defined as that amount of enzyme which catalyzes the consumption of 1.0 μmole of oxygen per minute or loss of 2.0 μmoles of free sulfhydryls per minute at 30° C., pH 6.7 using 1 mM GSH as substrate.
The substrate specificity of SOX toward low MW compounds containing a free SH moiety was ascertained by polarographic methodology. The activities were measured relative to glutathione (GSH) at 30° C. in the following assay system: 1 mM test compound, 227 μM molecular oxygen, 50 mM potassium phosphate pH 6.7, and sufficient SOX to yield a linear decrease in oxygen during the first three minutes. The rates were corrected for auto-oxidation.

Experiment [2] has as its system Aspergillus sojae SOX. Kind of experiment: Inhibition of Aspergillus sojae SOX.
Experiment [3] concerns bovine SOX. Kind of experiment: Inhibition of bovine SOX. Particulars: 1 mM concentration.

Where “and” joins values, the source holds several entries; their conditions need not be identical. Equal entries are not always repeated.

On to `O[C@H](CS)[C@H](O)CS` (racemic) [D,L--dithiothreitol, D,L-dithiothreitol], for which the “% of Activity with GSH” value in experiment [1] is on record as 5.6%; in experiment [1] (listed as D,L-dithiothreitol), 3-22%.
As to `N[C@H](CS)C(=O)O` [D--cysteine, D-cysteine], the “% of Activity with GSH” value in experiment [1] is reported as 4.1%; in experiment [1] (listed as D-cysteine), 3-22%.
As to `O=C(O)CN(CCN(CC(=O)O)CC(=O)O)CC(=O)O` [EDTA], in experiment [2] (concentration not printed for this enzyme), the “Inhibition of Aspergillus sojae SOX” value was “not inhibited”. For the same molecule, the “Inhibition of bovine SOX” value in experiment [3] was “almost completely”.
In the case of `N[C@@H](CS)C(=O)O` [L--cysteine, L-Cysteine], the “% of Activity with GSH” value in experiment [1] is reported as 8.7%; in experiment [1] (listed as L-Cysteine) it was 3-22%.
Consider `CCOC(=O)[C@@H](N)CS` [L--cysteine, ethyl ester, L-cysteine ethyl ester], for which the “% of Activity with GSH” value is on record as 21.8% in experiment [1] and 3-22% in experiment [1] (listed as L-cysteine ethyl ester).
`CC(=O)N[C@@H](CS)C(=O)O` [N--acetyl-L--cysteine, N-acetyl-L-cysteine]: the “% of Activity with GSH” value in experiment [1] was 3.0%; in experiment [1] (listed as N-acetyl-L-cysteine), 3-22%.
With `O=S(=O)([O-])[O-].[Zn+2]` [ZnSO4], in experiment [2] (1 mM concentration), the “Inhibition of microbial SOX” value is listed as “partially inhibited”. The “Inhibition of bovine SOX” value in experiment [3] is reported as “non-inhibitory”.
Consider `OCCS` [beta-mercaptoethanol], for which the “% of Activity with GSH” value in experiment [1] was 3-22% and 4.2%.
Take `O[C@H](CS)[C@@H](O)CS` [dithioerythreitol, D,L-dithioerythreitol]: the “% of Activity with GSH” value is 6.6% in experiment [1] and 3-22% in experiment [1] (listed as D,L-dithioerythreitol).
On to `N[C@@H](CCC(=O)N[C@@H](CS)C(=O)NCC(=O)O)C(=O)O` [glutathione, δ-L-glutamyl-L-cysteinyl-glycine], for which the “% of Activity with GSH” value in experiment [1] is reported as 100%.

These data come from patent publication US4632905A, “Microbial sulfhydryl oxidase” (Novo Laboratories, Inc., priority 1985, dated 1986).
